Data: patent publication US20240277732A1, “COMPOSITIONS AND METHODS FOR TREATING BRAIN-GUT DISORDERS” (Enterin, Inc., priority 2018, published 2024)
Entries after “also recorded” stand apart in the source; their conditions may differ.

Legend:
Type in all cases: in vivo, human
[1] = tested on: patients with PD and constipation; assay: Phase 2 trial Stage 2: circadian rhythm of wrist skin temperature
Procedure: (§1) Assessments were made at baseline and at the end of the fixed dose and washout periods. Circadian system status was evaluated by continuously monitoring wrist skin temperature (Thermochron iButton DS1921H; Maxim, Dallas) following published procedures (Sarabia et al. 2008).
Circadian rhythm of skin temperature was evaluable in 12 patients (i.e., those who had recordings that extended from baseline through washout). Circadian system functionality was evaluated by continuously monitoring wrist skin temperature using a temperature sensor (Thermochron iButton DS1921H; Maxim, Dallas, TX) (Sarabia et al. 2008). A nonparametric analysis was performed for each participant to characterize DST as previously described (Sarabia et al. 2008; Ortiz-Tudela et al. 2010). […]
Briefly, this analysis includes the following parameters: (i) the inter-daily stability (the constancy of 24-hour rhythmic pattern over days, IS); (ii) intra-daily variability (rhythm fragmentation, IV); (iii) average of 10-minute intervals for the 10 hours with the minimum temperature (L10); (iv) average of 10-minute intervals for the 5 hours with the maximum temperature (M5) and the relative amplitude (RA), which was determined by the difference between M5 and L10, divided by the sum of both. Finally, the Circadian Function Index (CFI) was calculated by integrating IS, IV, and RA. […]

[2] = Phase 2 trial: pharmacokinetics of orally administered squalamine (ENT-01); settings: estimated against IV squalamine PK of prior clinical studies
Procedure: Pharmakokinetics: PK data were collected on the 10 patients enrolled in Stage 1 and 10 patients enrolled in Stage 2 to determine the extent of systemic absorption. In Stage 1, PK data were obtained at each visit, pre-medication, at 1, 2, 4, 8 and 24 hours (Table 10). In Stage 2, PK was measured on days 1 and 6 of the randomization period pre-medication, at 1, 2, 4 and 8 hours (Table 11).
The mean Cmax, Tmax and T1/2 and AUC of the squalamine ion following squalamine (ENT-01) oral dosing for Stage 1 patients. The PK analyses are only approximate, as the lower limit of the validated concentration range was 10 ng/ml; most of the measured concentrations fell below that value. The mean Cmax, Tmax and T1/2 and AUC of the squalamine ion following squalamine (ENT-01) oral dosing for Stage 2 patients. The PK analyses are only approximate, as the lower limit of the validated concentration range was 0.5 ng/ml.

[3] = tested on: patients with PD and constipation; assay: Phase 2 trial: adverse events (MedDRA, CTCAE grading)
Procedure: Tolerability limits included diarrhea or vomiting.
(§2) In Stage 2, 34 patients were evaluated.

[4] = Phase 2 trial Stage 2: systolic blood pressure
[5] = tested on: patients with PD and constipation; assay: Phase 2 trial Stage 2: bowel function under daily oral dosing (stool diary, PAC-QOL, PAC-SYM)
Procedure: Following successful screening, all subjects underwent a 14-day run-in period where the degree of constipation was assessed through a validated daily log (Zinsmeister et al. 2013) establishing baseline CSBMs/week. Subjects with an average of <3 CSBMs/week proceeded to dosing.
as §2
The primary efficacy outcome variable was whether or not a subject was a “success” or “failure”. This is an endpoint based on subject diary entries for the “fixed dose” period prior to the endpoint assessment defined as average complete stool frequency increase by 1 or more over baseline, or 3 or more complete spontaneous stools/week. The subject was deemed a “success” if s/he met one or more of the criteria listed above, otherwise the subject was deemed a “failure”. The primary analysis was based on all subjects with a baseline assessment and an assessment at the end of the “fixed-dose” period and was a comparison of the proportion of successes with 0.10 (the null hypothesis corresponding to no treatment effect).

[6] = tested on: patients with PD and constipation; assay: Phase 2 trial Stage 2: CNS symptoms (UPDRS, MMSE, PDHQ, BDI-II, sleep diary)
Source text: Exploratory end-points, in addition to constipation, included for example, (i) depression assessed using the Beck Depression Inventory (BDI-II) (Steer et al. 2000) and Unified Parkinson's Disease Rating Scale (UPDRS); (ii) cognition assessed using the Mini Mental State Examination (MMSE) (Palsteia et al. 2018), Unified Parkinson's Disease Rating Scale (UPDRS), and Trail Making Test (TMT); (iii) sleep and REM-behavior disorder (RBD) using a daily sleep diary, I-Button Temperature Assessment, a REM sleep behavior disorder (RBD) questionnaire (RBDQ) (Stiasny-Kolster et al. 2007), and the UPDRS; (iv) hallucinations assessed using the PD hallucinations questionnaire (PDHQ) (Papapetropoulos et al. 2008), the UPDRS, and direct questioning; (v) fatigue using the Parkinson's Disease Fatigue Scale (PFS-16) and the UPDRS; (vi) motor functions using the UPDRS; and (vii) non-motor functions using the UPDRS.
as §1
CNS Symptoms in Stage 2: An exploratory analysis was done with respect to the sleep data, the body temperature data, mood, fatigue, hallucinations, cognition and other motor and non-motor symptoms of PD. Continuous measurements within a subject were compared with a paired t-test and continuous measurements between subject groups were compared with a two-group t-test. Categorical data were compared with a chi-squared test or a Fisher's exact test if the expected cell counts are too small for a chi-squared test.

Compound: CC(C)[C@@H](CC[C@@H](C)[C@H]1CC[C@H]2[C@@H]3[C@H](O)C[C@H]4C[C@@H](NCCCNCCCCN)CC[C@]4(C)[C@H]3CC[C@]12C)OS(=O)(=O)O (single isomer, unassigned) [squalamine (ENT-01)]
- markers of healthy circadian function (IS, RA, CFI, IV) ([1]; fixed dose versus baseline, 12 evaluable patients): improved all markers of healthy circadian function; also recorded: significant positive impact on the circadian rhythm of skin temperature
- circadian parameters during wash-out (IS, CFI) ([1]; wash-out versus baseline): improvement persisted for several of these circadian parameters
- oral bio-availability [2]: less than 0.3%
- Nausea, Mild ([3]; Stage 1 (10 dosed)): 4(40) n, %
- Diarrhea, adverse events by dose ([3]; Stage 1, 25 mg): 1
- Nausea, adverse events by dose ([3]; Stage 1, 25 mg): 0
- Vomiting, adverse events by dose ([3]; Stage 1, 25 mg): 0
- Diarrhea, adverse events by dose ([3]; Stage 1, 50 mg): 1
- Nausea, adverse events by dose ([3]; Stage 1, 50 mg): 0
- Vomiting, adverse events by dose ([3]; Stage 1, 50 mg): 0
- Diarrhea, adverse events by dose ([3]; Stage 1, 75 mg): 1
- Nausea, adverse events by dose ([3]; Stage 1, 75 mg): 0
- Vomiting, adverse events by dose ([3]; Stage 1, 75 mg): 0
- Diarrhea, adverse events by dose ([3]; Stage 1, 100 mg): 0
- Nausea, adverse events by dose ([3]; Stage 1, 100 mg): 1
- Vomiting, adverse events by dose ([3]; Stage 1, 100 mg): 1
- Diarrhea, adverse events by dose ([3]; Stage 1, 125 mg): 1
- Nausea, adverse events by dose ([3]; Stage 1, 125 mg): 2
- Vomiting, adverse events by dose ([3]; Stage 1, 125 mg): 1
- Diarrhea, adverse events by dose ([3]; Stage 1, 150 mg): 1
- Nausea, adverse events by dose ([3]; Stage 1, 150 mg): 0
- Vomiting, adverse events by dose ([3]; Stage 1, 150 mg): 0
- Diarrhea, adverse events by dose ([3]; Stage 1, 175 mg): 1
- Nausea, adverse events by dose ([3]; Stage 1, 175 mg): 1
- Vomiting, adverse events by dose ([3]; Stage 1, 175 mg): 0
- Diarrhea, adverse events by dose ([3]; Stage 1, 200 mg): 0
- Nausea, adverse events by dose ([3]; Stage 1, 200 mg): 2
- Vomiting, adverse events by dose ([3]; Stage 1, 200 mg): 0
- Difficulty falling asleep, Mild ([3]; Stage 2 (34 dosed)): 1(3) n, %
- Eye infection, Mild ([3]; Stage 2 (34 dosed)): 1(3) n, %
- Flatulence, Mild ([3]; Stage 2 (34 dosed)): 1(3) n, %
- Urinary retention, Mild ([3]; Stage 2 (34 dosed)): 1(3) n, %
- Urinary tract infection, Mild ([3]; Stage 2 (34 dosed)): 1(3) n, %
- Worsening hemorrhoid, Mild ([3]; Stage 2 (34 dosed)): 1(3) n, %
- Diarrhea, adverse events by dose ([3]; Stage 2, 75 mg): 7
- Dizziness (lightheadedness included), adverse events by dose ([3]; Stage 2, 75 mg): 8
- Nausea, adverse events by dose ([3]; Stage 2, 75 mg): 3
- Diarrhea, adverse events by dose ([3]; Stage 2, 100 mg): 10
- Dizziness (lightheadedness included), adverse events by dose ([3]; Stage 2, 100 mg): 7
- Nausea, adverse events by dose ([3]; Stage 2, 100 mg): 12
- Diarrhea, adverse events by dose ([3]; Stage 2, 125 mg): 3
- Dizziness (lightheadedness included), adverse events by dose ([3]; Stage 2, 125 mg): 8
- Nausea, adverse events by dose ([3]; Stage 2, 125 mg): 4
- Diarrhea, adverse events by dose ([3]; Stage 2, 150 mg): 2
- Dizziness (lightheadedness included), adverse events by dose ([3]; Stage 2, 150 mg): 2
- Nausea, adverse events by dose ([3]; Stage 2, 150 mg): 11
- Diarrhea, adverse events by dose ([3]; Stage 2, 175 mg): 1
- Dizziness (lightheadedness included), adverse events by dose ([3]; Stage 2, 175 mg): 0
- Nausea, adverse events by dose ([3]; Stage 2, 175 mg): 12
- Diarrhea, adverse events by dose ([3]; Stage 2, 200 mg): 3
- Nausea, adverse events by dose ([3]; Stage 2, 200 mg): 6
- Diarrhea, adverse events by dose ([3]; Stage 2, 225 mg): 3
- Nausea, adverse events by dose ([3]; Stage 2, 225 mg): 1
- Diarrhea, adverse events by dose ([3]; Stage 2, 250 mg): 2
- change of blood pressure at post medication measurement ([4]; Stage 2 subjects with high or low blood pressure): subjects with high blood pressure demonstrated lower blood pressure at post medication measurement, while subjects with low blood pressure demonstrated higher blood pressure
- BP at V4 + 2 hrs post dose ([4]; individual subjects): 111 mmHg
- response rate (CSBM within 24 h of dosing on at least 2 of 3 days) ([5]; Stage 2, daily oral dosing, 75 mg): 26%
- CSBM, weekly average (mean, SD) ([5]; Stage 2, fixed dose, n=34, baseline 1.2 (0.90)): 3.8 (2.4) /week
- CSBM frequency ([5]; patients later randomized to placebo (n=9), fixed dose period on drug, baseline 1.6): 3.3 CSBM/week
- CSBM frequency ([5]; randomized cohort, treatment arm (n=6), fixed dose period, baseline 0.8): 3.2 CSBM/week
- CSBM frequency ([5]; randomized cohort, treatment arm (n=6), randomized period 4-6 days, baseline 0.8): 2.4 CSBM/week
- CSBM frequency ([5]; randomized cohort, treatment arm (n=6), washout, baseline 0.8): 0.9 CSBM/week
- time hallucinations did not return after discontinuation ([6]; 1 patient): 4 weeks
- time hallucinations did not return after discontinuation ([6]; another patient): 2 weeks
- patients in whom hallucinations and delusions improved or disappeared during treatment ([6]; of those with hallucinations (5) or delusions (1) at baseline): 5 of 6
